US20070082883A1, “HIV protease inhibitors” (THE BOARD OF TRUSTEES OF THE UNIVERSITY OF ILLINOIS, priority 2002, published 2007)

Target: T1, HIV-1 protease (Human immunodeficiency virus type 1 group M subtype B, UniProt P04585)
T1 construct: made in house; host or cells: E. coli BL21 (dE3)pLysS, pET30a vector
Assay: HIV-1 Protease Inhibition Assay
Format: biochemical
Details: fluorogenic substrate assay
Description: Assays of the dose-response effect of inhibitor compounds can be described as a curve expressing a degree of inhibition as a function of concentration. The curve theoretically passes through a point at which the concentration is sufficient to reduce activity of the HIV protease enzyme to a level that is 50% that of the difference between minimal and maximal enzyme activity in the assay.
HIV-1 Protease Inhibition Assay
The HIV-1 protease gene was subcloned into the pET30a vector (Novagen) and then transformed into BL21 (dE3)pLysS cells for protein expression. Protein expression and purification were followed according to Tang's procedure (Hong et al., Biochemistry, 1996, 35, 10627-10633). […] The inclusion body containing some bacterial proteins was thoroughly washed by using TRITON X-100, solubilized in […] and passed through the Q-sepharose column to remove the bacterial proteins which interfered with subsequent refolding steps. HIV-1 protease was refolded from the urea to an active form by dialysis. As a final step, gel filtration chromatography was used to remove impurities after refolding. Activities of purified HIV-1 protease were examined using a fluorogenic substrate, 2-aminobenzoyl-Thr-Ile-Nle-Phe(pNO2)-Gln-Arg-NH2 (Novabiochem). […] In the condition of So<<Km, v=Eo(kcat/Km)So, where Eo is the total enzyme concentration, and So is the substrate concentrate. […] Assays are carried out as described by Toth and Marshall (Toth et al., Int. J. Pept. Protein Res., 1990, 36, 544-50).

CC(C)CN(C[C@@H](O)[C@H](Cc1ccccc1)NC(=O)OC(C)(C)C)S(=O)(=O)c1cncc([N+](=O)[O-])c1 [Compound 163] was tested, and the IC50 was 115 nM and the Ki was 36 nM.
In the case of CC(C)CN(C[C@@H](O)[C@H](Cc1ccccc1)NC(=O)OC(C)(C)C)S(=O)(=O)c1cncc(N)c1 [Compound 164], the IC50 is reported as 33 nM and the Ki is reported as 10 nM.
Work on CC(C)CN(C[C@@H](O)[C@H](Cc1ccccc1)NC(=O)OC1CO[C@H]2OCCC12)S(=O)(=O)c1cncc([N+](=O)[O-])c1 (stereo partly drawn) [Compound 165] yielded an IC50 of 3.5 nM and a Ki of 1 nM.
CC(C)CN(C[C@@H](O)[C@H](Cc1ccccc1)NC(=O)OC1CO[C@H]2OCCC12)S(=O)(=O)c1cncc(N)c1 (stereo partly drawn) [Compound 166] gave an IC50 of 0.91 nM and a Ki of 0.28 nM.
Work on CC(C)CN(C[C@@H](O)[C@H](Cc1ccccc1)NC(=O)OC1CC2CCO[C@@H]2C1)S(=O)(=O)c1cncc([N+](=O)[O-])c1 (stereo partly drawn) [Compound 167] yielded an IC50 of 4.5 nM and a Ki of 1.4 nM.
For CC(C)CN(C[C@@H](O)[C@H](Cc1ccccc1)NC(=O)OC1CC2CCO[C@@H]2C1)S(=O)(=O)c1cncc(N)c1 (stereo partly drawn) [Compound 168], the IC50 was 2.5 nM and the Ki was 0.8 nM.
In the case of CC(C)CN(C[C@@H](O)[C@H](Cc1ccccc1)NC(=O)O[C@H]1CCOC1)S(=O)(=O)c1cncc([N+](=O)[O-])c1 [Compound 169], the IC50 is reported as 7.1 nM and the Ki is reported as 22 nM.
Work on CC(C)CN(C[C@@H](O)[C@H](Cc1ccccc1)NC(=O)O[C@H]1CCOC1)S(=O)(=O)c1cncc(N)c1 [Compound 170] yielded an IC50 of 2.4 nM and a Ki of 0.74 nM.
In the case of CC(C)CN(C[C@@H](O)[C@H](Cc1ccccc1)NC(=O)O[C@H]1C[C@H]2CCO[C@H]2C1)S(=O)(=O)c1cncc([N+](=O)[O-])c1 [Compound 171], the IC50 is reported as 14 nM and the Ki is reported as 4.3 nM.
CC(C)CN(C[C@@H](O)[C@H](Cc1ccccc1)NC(=O)O[C@H]1C[C@H]2CCO[C@H]2C1)S(=O)(=O)c1cncc(N)c1 [Compound 172] gave an IC50 of 5.1 nM and a Ki of 1.6 nM.
In the case of CC(C)CN(C[C@@H](O)[C@H](Cc1ccccc1)NC(=O)OC1CC2CCO[C@@H]2C1)S(=O)(=O)c1ccc(F)c(N)c1 (stereo partly drawn) [Compound 179], the IC50 is reported as 6.4 nM and the Ki is reported as 2 nM.
CN(C)CCN(C[C@@H](O)[C@H](Cc1ccccc1)NC(=O)OC1CC2CCO[C@@H]2C1)S(=O)(=O)c1ccc(F)c(N)c1 (stereo partly drawn) [Compound 180] gave an IC50 of 1500 nM and a Ki of 472 nM.
With CC(C)CN(C[C@@H](O)[C@H](Cc1ccccc1)NC(=O)O[C@H]1CCOC1)S(=O)(=O)c1ccc(F)c([N+](=O)[O-])c1 [Compound 181] the IC50 was 145 nM and the Ki was 45 nM.
CC(C)CN(C[C@@H](O)[C@H](Cc1ccccc1)NC(=O)O[C@H]1CCOC1)S(=O)(=O)c1ccc(F)c(N)c1 [Compound 182] showed an IC50 of 4.6 nM and a Ki of 1.4 nM.
Cc1c(O)cccc1C(=O)N[C@@H](Cc1ccccc1)[C@H](O)CN(CC(C)C)S(=O)(=O)c1ccc(F)c(N)c1 [Compound 183] showed an IC50 of 179 nM and a Ki of 56 nM.
CC(C)CN(C[C@@H](O)[C@H](Cc1ccccc1)NC(=O)O[C@@H]1CC2CCO[C@@H]2C1)NS(=O)(=O)c1ccc(F)c([N+](=O)[O-])c1 (stereo partly drawn) [Compound 184] was tested, and the IC50 was 1200 nM and the Ki was 351 nM.
COc1ccc(S(=O)(=O)NN(CC(C)C)C[C@@H](O)[C@H](Cc2ccccc2)NC(=O)O[C@H]2CO[C@H]3OCCC32)cc1 (stereo partly drawn) [Compound 185] was tested, and the IC50 was 312 nM and the Ki was 97 nM.
With COc1ccc(S(=O)(=O)NN(CC(C)C)C[C@@H](O)[C@H](Cc2ccccc2)NC(=O)O[C@@H]2CC3CCO[C@@H]3C2)cc1 (stereo partly drawn) [Compound 186] the IC50 was 10 nM and the Ki was 3.2 nM.
COc1ccc(S(=O)(=O)N(C[C@@H](O)[C@H](Cc2ccccc2)NC(=O)OC(C)(C)C)NC(=O)OC(C)(C)C)cc1 [Compound 187] gave an IC50 of 534 nM and a Ki of 166 nM.
For COc1ccc(S(=O)(=O)N(C[C@@H](O)[C@H](Cc2ccccc2)NC(=O)O[C@H]2CO[C@H]3OCCC32)NC(=O)OC(C)(C)C)cc1 (stereo partly drawn) [Compound 188], the IC50 was 3.9 nM and the Ki was 1.2 nM.
COc1ccc(S(=O)(=O)N(N)C[C@@H](O)[C@H](Cc2ccccc2)NC(=O)O[C@H]2CO[C@H]3OCCC32)cc1 (stereo partly drawn) [Compound 189] was tested, and the IC50 was 55 nM and the Ki was 17 nM.
CC(C)(C)OC(=O)NN(C[C@@H](O)[C@H](Cc1ccccc1)NC(=O)O[C@H]1CO[C@H]2OCCC21)S(=O)(=O)c1ccc(F)c(N)c1 (stereo partly drawn) [Compound 190] was tested, and the IC50 was 3.5 nM and the Ki was 1.1 nM.
With CC(C)(C)OC(=O)NN(C[C@@H](O)[C@H](Cc1ccccc1)NC(=O)O[C@@H]1CC2CCO[C@@H]2C1)S(=O)(=O)c1ccc(F)c(N)c1 (stereo partly drawn) [Compound 191] the IC50 was 9.6 nM and the Ki was 3 nM.
COc1ccc(S(=O)(=O)N(C[C@@H](O)[C@H](Cc2ccccc2)NC(=O)O[C@H]2CO[C@H]3OCCC32)C2CN(C(=O)OC(C)(C)C)C2)cc1 (stereo partly drawn) [Compound 200] was tested, and the IC50 was 7.6 nM and the Ki was 2.3 nM.
Compound COc1ccc(S(=O)(=O)N(C[C@@H](O)[C@H](Cc2ccccc2)NC(=O)O[C@H]2CO[C@H]3OCCC32)C2CN(C)C2)cc1 (stereo partly drawn) [Compound 201] has an IC50 of 5.6 nM and a Ki of 1.7 nM.
With COc1ccc(S(=O)(=O)N(C[C@@H](O)[C@H](Cc2ccccc2)NC(=O)O[C@@H]2CO[C@@H]3OCC[C@@H]32)C2CN(C)C2)cc1 [Compound 202] the IC50 was 31 nM and the Ki was 9.7 nM.
Compound COc1ccc(S(=O)(=O)N(C[C@@H](O)[C@H](Cc2ccccc2)NC(=O)O[C@@H]2CC3CCO[C@@H]3C2)C2CN(C)C2)cc1 (stereo partly drawn) [Compound 204] has an IC50 of 5.6 nM and a Ki of 1.7 nM.
Work on COc1ccc(S(=O)(=O)N(C[C@@H](O)[C@H](Cc2ccccc2)NC(=O)O[C@H]2C[C@H]3CCO[C@H]3C2)C2CN(C)C2)cc1 [Compound 205] yielded an IC50 of 87 nM and a Ki of 27 nM.
Work on COc1ccc(S(=O)(=O)N(C[C@@H](O)[C@H](Cc2ccccc2)NC(=O)O[C@H]2CCOC2)C2CN(C)C2)cc1 [Compound 206] yielded an IC50 of 109 nM and a Ki of 34 nM.
With COc1ccc(S(=O)(=O)N(CC(C)C)C[C@@H](O)[C@H](Cc2ccc(OCc3ccccc3)cc2)NC(=O)OC(C)(C)C)cc1 [Compound 207] the IC50 was 96 nM and the Ki was 30 nM.
For COc1ccc(S(=O)(=O)N(CC(=O)[C@H](Cc2ccc(OCc3ccccc3)cc2)NC(=O)OC(C)(C)C)CC(C)C)cc1 [Compound 208], the IC50 was greater than 2300 nM.
COc1ccc(S(=O)(=O)N(CC(C)C)C[C@H](O)[C@H](Cc2ccc(OCc3ccccc3)cc2)NC(=O)OC(C)(C)C)cc1 [Compound 209] showed an IC50 of 30 nM and a Ki of 9.3 nM.
With COc1ccc(S(=O)(=O)N(CC(C)C)CC(O)C(Cc2ccc(OCc3ccccc3)cc2)NC(=O)OC(C)(C)C)cc1 (stereo not drawn) [Compound 210] the IC50 was 13 nM and the Ki was 4.1 nM.
Work on COc1ccc(S(=O)(=O)N(CC(C)C)C[C@H](O)[C@H](Cc2ccc(OCc3ccccc3)cc2)NC(=O)O[C@H]2CO[C@H]3OCCC32)cc1 (stereo partly drawn) [Compound 211] yielded an IC50 of 90 nM and a Ki of 28 nM.
COc1ccc(S(=O)(=O)N(CC(C)C)C[C@@H](O)[C@H](Cc2ccc(OCc3ccccc3)cc2)NC(=O)O[C@H]2CO[C@H]3OCCC32)cc1 (stereo partly drawn) [Compound 212] gave an IC50 of 30 nM and a Ki of 9.3 nM.
COc1ccc(S(=O)(=O)N(CC(C)C)C[C@@H](O)[C@H](Cc2ccc(O)cc2)NC(=O)O[C@H]2CO[C@H]3OCCC32)cc1 (stereo partly drawn) [Compound 213] showed an IC50 of 4.1 nM and a Ki of 1.3 nM.
For C=CCCCCN(C[C@@H](O)[C@H](Cc1ccccc1)NC(=O)O[C@H]1CO[C@H]2OCCC21)S(=O)(=O)c1cccc(OCCCC=C)c1 (stereo partly drawn) [Compound 225], the IC50 was 8.1 nM and the Ki was 2.5 nM.
O=C(N[C@@H](Cc1ccccc1)[C@H](O)CN1CCCC/C=C/CCCOc2cccc(c2)S1(=O)=O)O[C@H]1CO[C@H]2OCCC21 (stereo partly drawn) [Compound 225a] gave an IC50 of 7.8 nM and a Ki of 2.4 nM.
For O=C(N[C@@H](Cc1ccccc1)[C@H](O)CN1CCCCCCCCCOc2cccc(c2)S1(=O)=O)O[C@H]1CO[C@H]2OCCC21 (stereo partly drawn) [Compound 225b], the IC50 was 7.8 nM and the Ki was 2.4 nM.
Compound C=CCCCCOc1cccc(S(=O)(=O)N(CCCCC=C)C[C@@H](O)[C@H](Cc2ccccc2)NC(=O)O[C@H]2CO[C@H]3OCCC32)c1 (stereo partly drawn) [Compound 225c] has an IC50 of 8.5 nM and a Ki of 2.6 nM.
C=CCCCCN(C[C@@H](O)[C@H](Cc1ccccc1)NC(=O)O[C@@H]1CC2CCO[C@@H]2C1)S(=O)(=O)c1cccc(OCC=C)c1 (stereo partly drawn) [Compound 225f] showed an IC50 of 11 nM and a Ki of 3.4 nM.
For O=C(N[C@@H](Cc1ccccc1)[C@H](O)CN1CCCC/C=C\COc2cccc(c2)S1(=O)=O)O[C@@H]1CC2CCO[C@@H]2C1 (stereo partly drawn) [Compound 225g], the IC50 was 10 nM and the Ki was 3.1 nM.
O=C(N[C@@H](Cc1ccccc1)[C@H](O)CN1CCCCCCCOc2cccc(c2)S1(=O)=O)O[C@@H]1CC2CCO[C@@H]2C1 (stereo partly drawn) [Compound 225h] gave an IC50 of 6.8 nM and a Ki of 2.1 nM.
C=CCCCCOc1cccc(S(=O)(=O)N(CCCCC=C)C[C@@H](O)[C@H](Cc2ccccc2)NC(=O)O[C@@H]2CC3CCO[C@@H]3C2)c1 (stereo partly drawn) [Compound 225i] showed an IC50 of 17 nM and a Ki of 5.3 nM.
C=CCCCCOc1ccccc1COC(=O)N(CCCC=C)C[C@@H](O)[C@H](Cc1ccccc1)NC(=O)O[C@@H]1CC2CCO[C@@H]2C1 (stereo partly drawn) [Compound 226] showed an IC50 greater than 2000 nM.
Work on O=C(N[C@@H](Cc1ccccc1)[C@H](O)CN1CCC/C=C\CCCCOc2ccccc2COC1=O)O[C@@H]1CC2CCO[C@@H]2C1 (stereo partly drawn) [Compound 227] yielded an IC50 of 495 nM and a Ki of 154 nM.
